Source: patent US20200085814A1, “COMBINATION OF CERTINIB WITH AN EGFR INHIBITOR” (Novartis AG, priority 2014, published 2020)
“Also recorded” adds a separate entry of the source. Like-named read-outs stand apart in the source and are kept apart here.

Columns and labels:
[1] = tested on: AKT phosphorylation in MGH051 cells; experiment: Western blotting, MGH051 cells, ceritinib 4 hours or 8 days, inhibitors added for last day; format: cell-based; conditions: MGH051 (FIG. 6); for rebound in AKT phosphorylation: added for the last day of long-term (8 days) ceritinib treatment
Procedure: (§1) FIG. 6. […] MGH051 cells were treated with ceritinib (LDK378) for 4 hours or 8 days.
(§2) The activated states of ALK and HER3 of multiple NSCLC cell lines that harbor EML4-ALK translocations were assessed in both short-term and long-term cultures.

[2] = tested on: ERK phosphorylation in MGH051 cells; experiment: Western blotting, MGH051 cells, inhibitors added for last day of long-term ceritinib treatment; format: cell-based; conditions: added for the last day of long-term (8 days) ceritinib treatment, MGH051 (FIG. 6)
Procedure: as §1, §2

[3] = tested on: HER3 activation in MGH051 cells; experiment: as above; format: cell-based; conditions: added for the last day of long-term (8 days) ceritinib treatment, MGH051 (FIG. 6)
Procedure: FIG. 6. Addition of HER3 and EGFR inhibitors represses the rebound in AKT phosphorylation. MGH051 cells were treated with ceritinib (LDK378) for 4 hours or 8 days.
The activated states of ALK and HER3 of multiple NSCLC cell lines that harbor EML4-ALK translocations were assessed in both short-term and long-term cultures. […] In addition, the levels of pHER3 correlated with the duration of the treatments (FIG. 5). Next, we assessed the activation of the downstream signaling of HER3 and the repression of ceritinib-induced HER3 activation using various inhibitors.

H2228 tumors = experiment: H2228 NSCLC xenograft efficacy; format: in vivo, female SCID-beige mice
Procedure: In this experiment female SCID Beige mice bearing H2228 tumors were used. At start, the mice were 8 to 12 weeks of age. First, the mice were inoculated with 4 mm^3 H2228 tumor fragments by subcutaneous injection in flank. The fragments were dipped in Matrigel before implanting. When tumors reached an average size of 100-150 mm^3 the treatment according to the scheme below commenced. The body weight was measured daily for the first 5 days and then biweekly until end. The tumor was measured biweekly by caliper until end. […] Dosing with the compounds ended on study day 32. After this the tumor size was monitored during an observation phase for re-growth.
The average tumor volume data in the graphs is not complete through the end of the study for all groups. Once a group lost more than 50% of the animals due to death or ethical sacrifice, the average tumor volume for the remaining animals in these groups was no longer graphed.

MGH049 cells [4] = experiment: Cell proliferation (CellTiter-Glo), EGFR inhibitors with or without ceritinib; format: cell-based
Procedure: (§3) These cell lines harbor EML4-ALK rearrangements.
(§4) Three replicate plates were set up for each cell line and drug compound, with or without ceritinib. A representative dose response curve was then calculated by taking the mean across the 3 replicates with and without ceritinib. Proliferation inhibition values were normalized to the measured inhibition value at zero dose of the compound, with and without ceritinib.
(§5) Experiments performed with cell lines MGH049 and MGH051 are depicted on FIG. 3 and FIG. 4, respectively.

MGH051 cells [5] = tested on: MGH051 cells
Procedure: as §3, §4, §5

MGH049 cells [6] = experiment: Cell colony formation assay, crystal violet; format: cell-based; conditions: MGH049, 7 days; for anti-proliferative effect in combination with ceritinib versus ceritinib alone (colony formation): ceritinib 0.5 μM + erlotinib 1 μM (FIG. 7); for cell growth inhibition as single agent (colony formation): ceritinib 0.5 μM or erlotinib 1 μM (FIG. 7)
From the text: (§6) FIGS. 7A and 7B. […] For each cell line, all dishes were fixed, stained and photographed at the same time.

MGH051 cells [7] = experiment: Cell colony formation assay, crystal violet; format: cell-based; conditions: MGH051, 7 days; for anti-proliferative effect in combination with ceritinib versus ceritinib alone (colony formation): ceritinib 0.5 μM + erlotinib 1 μM (FIG. 7); for cell growth inhibition as single agent (colony formation): ceritinib 0.5 μM or erlotinib 1 μM (FIG. 7)
From the text: as §6

NCI-H2228 cells = experiment: Secretome screening, CellTiter-Glo cell proliferation in presence of ceritinib; format: cell-based; conditions: 0.5 μM ceritinib, conditioned supernatant, 96 hours
Procedure: NCI-H2228 was obtained from ATCC. The cell lines harbored EML4-ALK rearrangements. NCI-H2228 cells were cultured in RPMI-1640 (ATCC Catalog #30-2001) supplemented with 15% FBS.
Secretome screening was performed as described previously (Lito P, Pratilas C A, et al. Cancer Cell 2012; 22: 668-82). In brief, 317 cDNA constructs that represent 220 unique secreted proteins were reverse transfected into HEK293T cells individually and incubated 4 days to allow accumulation of secreted proteins in supernatant. The supernatant was transferred to the assay cells, namely NCI-H2228 cells, followed by addition of ceritinib to a final concentration of 0.5 μM. Cell proliferation was measured using CellTiter-Glo after 96 hours. Cells treated with DMSO in the absence of conditioned media and with ceritinib alone were used as controls.
The Cell Titer Glo assay was done with H2228 cell line. The cell line stems from adenocarcinoma; non-small cell lung cancer. Cell Titer Glo assay is a Cell Viability Assay that determined the number of viable cells in culture based on quantitation of the ATP present, which signaled the presence of metabolically active cells.
“Ceritinib no ligand” represents cells that were treated with ceritinib only (absence of any ligand) and represents the impact of ceritinib on cell viability. […]

MGH049 cells [8] = experiment: Cell proliferation assay (CellTiter-Glo), ceritinib dose response; format: cell-based; conditions: 144 h; 0.3 μM ceritinib, 6 days, MGH049, relative to median DMSO signal; read-out: percent inhibition of cell proliferation
Procedure: (§7) MGH049 and MGH051 were obtained from Massachusetts General Hospital (Friboulet L, Li N, et al. Cancer Discovery 2014; 4: 662-73). These cell lines harbor EML4-ALK rearrangements. MGH049 and MGH051 were cultured in DMEM (ATCC Catalog #30-2002) supplemented with 10% FBS.
(§8) To determine the dose-response relationship between the dose of ceritinib and the magnitude of its effect on cell proliferation, 1K MGH049 and 4K MGH051 cells were plated in each well of 384 well-plates, and grown for 24 hours prior to treatment. Cells were then treated with DMSO or ceritinib at concentrations ranging from 4 nM to 1 μM (3-fold dilutions). After 6 days, cell proliferation was measured using the CellTiter-Glo luminescent cell viability assay. Percent inhibition was calculated relative to median DMSO signal.

MGH051 cells [9] = experiment: as above; format: cell-based; conditions: 144 h; 0.3 μM ceritinib, 6 days, MGH051, relative to median DMSO signal; read-out: percent inhibition of cell proliferation
Procedure: as §7, §8

[10] = tested on: HER3 phosphorylation in ALK positive NSCLC cell lines; experiment: Western blotting of whole cell lysates after short-term and long-term ceritinib treatment; format: cell-based; conditions: long-term treatment, 4 ALK positive cell lines (FIG. 5)
Procedure: FIG. 5. […] Cells were harvested after short-term and long-term ceritinib (LDK378) treatment, and whole cell lysates were analyzed by Western blotting.
as §2

## CN(C)C/C=C/C(=O)Nc1cc2c(Nc3ccc(F)c(Cl)c3)ncnc2cc1O[C@H]1CCOC1 [afatinib, (S,E)-N-(4-((3-chloro-4-fluorophenyl)amino)-7-((tetrahydrofuran-3-yl)oxy)quinazolin-6-yl)-4-(dimethylamino)but-2-enamide]
[1]
  rebound in AKT phosphorylation: able to suppress the rebound in AKT phosphorylation
[2]
  ERK phosphorylation: enhanced inhibition of ERK phosphorylation

## Antibody A: anti-HER3 antibody comprising the sequences of MOR10703 as defined in Table 1
[3]
  activation of HER3: markedly suppressed
[1]
  rebound in AKT phosphorylation: markedly suppressed
H2228 tumors; LDK378 25 or 50 mg/kg po qd × 32 + cetuximab 20 mg/kg ip biwk × 5 or Ab A 25 mg/kg ip qod × 17 (FIGS. 8A, 8B)
  efficacy (tumor volume) of LDK378 in combination with the antibody: significantly improved efficacy of LDK378
H2228 tumors; ceritinib + Antibody A + cetuximab
  efficacy of ceritinib with Antibody A and cetuximab combined (triple combination): significantly improve the efficacy of ceritinib

## CS(=O)(=O)CCNCc1ccc(-c2ccc3ncnc(Nc4ccc(OCc5cccc(F)c5)c(Cl)c4)c3c2)o1 [lapatinib, N-[3-chloro-4-(3-fluorobenzyloxy)phenyl]-6-{5-[4-(methylsulfonyl)-2-azabutyl]-2-furyl} quinazolin-4-amine]
MGH049 cells [4]
  cell growth, EGFR inhibitor in combination with ceritinib: synergistically reduced cell growth
MGH051 cells [5]
  cell growth, EGFR inhibitor in combination with ceritinib: synergistically reduced cell growth

## C#Cc1cccc(Nc2ncnc3cc(OCCOC)c(OCCOC)cc23)c1 [erlotinib, N-(3-ethynylphenyl)-6,7-bis-(2-methoxyethoxy)quinazolin-4-amine]
[1]
  rebound in AKT phosphorylation: able to suppress the rebound in AKT phosphorylation
[2]
  ERK phosphorylation: enhanced inhibition of ERK phosphorylation
MGH049 cells [6]
  anti-proliferative effect in combination with ceritinib versus ceritinib alone (colony formation): greater anti-proliferative effect
  cell growth inhibition as single agent (colony formation): no effect on cell growth
MGH049 cells [6]; listed as Erlotinib
  anti-proliferative effect in combination with ceritinib versus ceritinib alone (colony formation): enhances the anti-proliferation activity of ceritinib
MGH051 cells [7]
  anti-proliferative effect in combination with ceritinib versus ceritinib alone (colony formation): greater anti-proliferative effect
  cell growth inhibition as single agent (colony formation): no effect on cell growth
MGH051 cells [7]; listed as Erlotinib
  anti-proliferative effect in combination with ceritinib versus ceritinib alone (colony formation): enhances the anti-proliferation activity of ceritinib

## Cc1cc(C(=O)Nc2nc3cccc(Cl)c3n2[C@@H]2CCCCN(C(=O)/C=C/CN(C)C)C2)ccn1 [compound A, (R,E)-N-(7-chloro-1-(1-(4-(dimethylamino)but-2-enoyl)azepan-3-yl)-1H-benzo[d]imidazol-2-yl)-2-methylisonicotinamide]
MGH049 cells [4]; in combination with 0.5 μM ceritinib, 6 days, MGH049 (FIG. 3)
  cell growth, EGFR inhibitor in combination with ceritinib: synergistically reduced cell growth
MGH051 cells [5]; in combination with 0.5 μM ceritinib, 6 days, MGH051 (FIG. 4)
  cell growth, EGFR inhibitor in combination with ceritinib: synergistically reduced cell growth

## Cc1cc(Nc2ncc(Cl)c(Nc3ccccc3S(=O)(=O)C(C)C)n2)c(OC(C)C)cc1C1CCNCC1 [ceritinib, 5-chloro-N^2-(2-isopropoxy-5-methyl-4-(piperidin-4-yl)phenyl)-N^4-[2-(propane-2-sulfonyl)-phenyl]-pyrimidine-2,4-diamine]
NCI-H2228 cells
  reversal of growth inhibitory effect of ceritinib by secreted ligands (cell viability): Ligands for EGFR and ERBB3 clearly overcame the inhibitory effect of ceritinib
MGH049 cells [8]
  inhibition at 0.3 µM: 20%
MGH051 cells [9]
  inhibition at 0.3 µM: 70%
MGH049 cells [4]; MGH049, no ALK resistance mutations
  sensitivity of cell line to ceritinib alone: resistant
[10]
  HER3 phosphorylation: induction of HER3 phosphorylation; also recorded: up-regulation of HER3 phosphorylation
[1]; ceritinib 8-day treatment
  AKT phosphorylation: profound rebound in AKT phosphorylation
[1]; ceritinib initial (4 hours) treatment
  AKT phosphorylation: initial inhibition of AKT phosphorylation
MGH049 cells [6]
  cell growth inhibition as single agent (colony formation): less effective
MGH051 cells [7]
  cell growth inhibition as single agent (colony formation): partially effective
